{"source": "patent US8003570B2", "about": "“Composition and method for killing nematodes and weeds in soils” (priority 2006, dated 2011)", "format_in_all_cases": "in vivo", "key": {"[1]": {"tested_on": "tomatoes", "assay": "Example II field trial, methyl bromide dose reduction with or without composition A: tomato growth and production", "conditions": "M.B. 50 lbs. alone"}, "[2]": {"tested_on": "tomatoes", "assay": "Example II field trial, methyl bromide dose reduction with or without composition A: tomato growth and production", "procedure": "(§1) Field trials were conducted in Florida where tomatoes are grown under a plastic mulch and an irrigation system, called “T” tapes, which is used to irrigate the crop under the plastic mulch. Design of the experiment were three rows of a standard methyl bromide applications as the smallest replication. Four such sets of three rows were used as replicated applications. There was a zero treatment. Methyl bromide gas used at a 400 pounds per acre basis as the control and the compositions A, B, C. and D were used at a 5 liters per acre basis. Composition A was injected through the “T” tape one day after methyl bromide was injected.\n(§2) The plants growing in the middle rows only of these three rows, were used to collect data. In the middle rows, 14 plants were randomly selected for measuring. The height of the plants were collected at 30 days. Starting at fruit harvest, fruits collected from these 14 plants were cumulatively added to give the total production data. At the end of harvest these plants were carefully dug up and roots carefully washed to weigh the total roots and also measure the degree of infection in the roots. Soil samples were also collected from the holes where the plants were dug up and analyzed for soil nematode population. Finally, all nut sedge plants that came through the plastic mulch in the entire 150-yard middle rows were counted as a “strike”, a degree of insufficient kill of the rhizomes.\n(§3) In this experiment, methyl bromide was applied at full dose of 400 pounds per acre of the gas and the treatments used 200 pounds of methyl bromide per acre alone and with 5 liters of composition A per acre, 100 pounds of methyl bromide alone and with composition A at 5 liters per acre, 50 pounds of methyl bromide with 5 liters of composition A and the last treatment of 5 liters of composition A per acre by itself. Tomatoes were planted 20 days after methyl bromide was injected under the plastic mulch. Composition A was injected through the “T” tape one day after methyl bromide was injected. The design of Experiment II was the same as in Experiment I, and the data collected were as in the Experiment I. The results of this experiment are shown in Table II."}, "[3]": {"tested_on": "nematodes", "assay": "Example II field trial: soil nematode population and root infection", "procedure": "as §1, §2, §3"}, "[4]": {"tested_on": "tomatoes", "assay": "Example 1 field trial in Florida, tomatoes under plastic mulch: plant height, production, root weight", "conditions": "methyl bromide 400 pounds per acre, compositions 5 liters per acre", "procedure": "as §1, §2"}, "[5]": {"tested_on": "nut sedge rhizomes", "assay": "Example 1 field trial in Florida: nut sedge strikes through plastic mulch", "conditions": "methyl bromide 400 pounds per acre", "procedure": "as §1\nThe plants growing in the middle rows only of these three rows, were used to collect data. In the middle rows, 14 plants were randomly selected for measuring. The height of the plants were collected at 30 days. Starting at fruit harvest, fruits collected from these 14 plants were cumulatively added to give the total production data. […] Soil samples were also collected from the holes where the plants were dug up and analyzed for soil nematode population. Finally, all nut sedge plants that came through the plastic mulch in the entire 150-yard middle rows were counted as a “strike”, a degree of insufficient kill of the rhizomes."}, "[6]": {"tested_on": "nematodes", "assay": "Example 1 field trial in Florida: soil nematode population and root infection", "conditions": "methyl bromide 400 pounds per acre", "procedure": "as §1, §2"}, "[7]": {"tested_on": "nut sedge rhizomes", "assay": "Example II field trial: nut sedge strikes", "procedure": "as §1, §2, §3"}}, "data": [{"smiles": "CBr", "note": "[Methyl Bromide, Methyl bromide]", "values": [{"measurement": "Height at 30 Days", "setting": "[1]", "value": 2, "unit": "ft."}, {"measurement": "Production Per Plant", "setting": "[1]", "value": 4, "unit": "lbs."}, {"measurement": "Weight of Roots", "setting": "[1]", "value": 60}, {"measurement": "Height at 30 Days", "setting": "[2]; M.B. 100 lbs. per acre alone", "value": 2.2, "unit": "ft."}, {"measurement": "Production Per Plant", "setting": "[2]; M.B. 100 lbs. per acre alone", "value": 5.1, "unit": "lbs."}, {"measurement": "Weight of Roots", "setting": "[2]; M.B. 100 lbs. per acre alone", "value": 90, "unit": "gr."}, {"measurement": "Height at 30 Days", "setting": "[2]; M.B. 200 lbs. per acre alone", "value": 2.7, "unit": "ft."}, {"measurement": "Production Per Plant", "setting": "[2]; M.B. 200 lbs. per acre alone", "value": 6.1, "unit": "lbs."}, {"measurement": "Weight of Roots", "setting": "[2]; M.B. 200 lbs. per acre alone", "value": 120, "unit": "gr."}, {"measurement": "Height at 30 Days", "setting": "[2]; M.B. 400 lbs per acre", "value": 3, "unit": "ft."}, {"measurement": "Production Per Plant", "setting": "[2]; M.B. 400 lbs per acre", "value": 8.6, "unit": "lbs."}, {"measurement": "Weight of Roots", "setting": "[2]; M.B. 400 lbs per acre", "value": 170, "unit": "gr."}, {"measurement": "Infection in Roots", "setting": "[3]; M.B. 50 lbs. alone", "value": "high"}, {"measurement": "Soil Nematode", "setting": "[3]; M.B. 50 lbs. alone", "value": "16,000"}, {"measurement": "Infection in Roots", "setting": "[3]; M.B. 100 lbs. per acre alone", "value": "high"}, {"measurement": "Soil Nematode", "setting": "[3]; M.B. 100 lbs. per acre alone", "value": "2200/10 gr."}, {"measurement": "Infection in Roots", "setting": "[3]; M.B. 200 lbs. per acre alone", "value": "slight"}, {"measurement": "Soil Nematode", "setting": "[3]; M.B. 200 lbs. per acre alone", "value": "1056/10 gr."}, {"measurement": "Infection in Roots", "setting": "[3]; M.B. 400 lbs per acre", "value": "zero"}, {"measurement": "Soil Nematode", "setting": "[3]; M.B. 400 lbs per acre", "value": "zero"}, {"measurement": "Weight of Roots", "setting": "[4]; end of harvest", "value": 165, "unit": "gr."}, {"measurement": "Height at 30 Days", "setting": "[4]", "value": 2.6, "unit": "feet"}, {"measurement": "Production Per Plant", "setting": "[4]", "value": 16, "unit": "lbs."}, {"measurement": "efficacy in controlling the weeds", "setting": "[5]; Example 1 discussion", "value": "same efficacy in controlling the weeds as composition A"}, {"measurement": "Live nut sedge in 150 yards", "setting": "[5]; shoots piercing plastic mulch in 150-yard middle rows, compositions 5 liters per acre", "value": "12/150 strikes″."}, {"measurement": "nematode control in the soil", "setting": "[6]; Example 1 discussion", "value": "superior to compositions A, B, C and D"}, {"measurement": "Soil Nematode", "setting": "[6]; soil at end of harvest, compositions 5 liters per acre", "value": "700/10 gr"}, {"measurement": "Infection in Roots", "setting": "[6]; tomato roots, end of harvest, compositions 5 liters per acre", "value": "zero"}, {"measurement": "Live nut sedge in 150 yards", "setting": "[7]; M.B. 50 lbs. alone", "value": 38, "unit": "strikes"}, {"measurement": "Live nut sedge in 150 yards", "setting": "[7]; M.B. 100 lbs. per acre alone", "value": 28, "unit": "strikes"}, {"measurement": "Live nut sedge in 150 yards", "setting": "[7]; M.B. 200 lbs. per acre alone", "value": 18, "unit": "strikes"}, {"measurement": "Live nut sedge in 150 yards", "setting": "[7]; M.B. 400 lbs per acre", "value": 7, "unit": "strikes"}]}]}
